Laboratory results: US10770169B2, “Method of providing a treatment to a subject based on a dynamic pathway map” (THE REGENTS OF THE UNIVERSITY OF CALIFORNIA, priority 2010, dated 2020)
Read-outs that look alike come from different tables or passages of the source.

System: panel of 55 breast cancer cell lines
Assay: Cell growth inhibition assay (Cell Titer Glo, 72 h, 9 doses; GI50, TGI, LC50)
Assay type: cell-based, human
Conditions: Homo sapiens, read-out: GI50 (converted)

## Cc1ccc(C(=O)N(CCCN)[C@@H](c2nc3cc(Cl)ccc3c(=O)n2Cc2ccccc2)C(C)C)cc1 [Ispinesib]
AU565, cell line AU565, censored GI50 values
  GI50: 22.4 nM
AU565, cell line AU565
  GI50: 22.4 nM
BT-20, cell line BT20, censored GI50 values
  GI50: 17 nM
BT-20, cell line BT20
  GI50: 17 nM
BT-474, cell line BT474, censored GI50 values
  GI50: 51.3 nM
BT-474, cell line BT474
  GI50: 51.3 nM
BT-483, cell line BT483, censored GI50 values
  GI50: 0.049 nM
BT-483, cell line BT483
  GI50: 0.049 nM
BT-549, cell line BT549, censored GI50 values
  GI50: 46.8 nM
BT-549, cell line BT549
  GI50: 46.8 nM
CAMA-1, cell line CAMA1, censored GI50 values
  GI50: 31.6 nM
CAMA-1, cell line CAMA1
  GI50: 31.6 nM
HCC38, cell line HCC38, censored GI50 values
  GI50: 46.8 nM
HCC38, cell line HCC38
  GI50: 46.8 nM
HCC70, cell line HCC70, censored GI50 values
  GI50: 45.7 nM
HCC70, cell line HCC70
  GI50: 45.7 nM
HCC202, cell line HCC202, censored GI50 values
  GI50: 7.59 nM
HCC202, cell line HCC202
  GI50: 7.59 nM
HCC1143, cell line HCC1143, censored GI50 values
  GI50: 51.3 nM
HCC1143, cell line HCC1143
  GI50: 51.3 nM
HCC1187, cell line HCC1187, censored GI50 values
  GI50: 26.9 nM
HCC1187, cell line HCC1187
  GI50: 26.9 nM
HCC1395, cell line HCC1395, censored GI50 values
  GI50: 27.5 nM
HCC1395, cell line HCC1395
  GI50: 27.5 nM
HCC1419, cell line HCC1419, censored GI50 values
  GI50: 6760 nM
HCC1419, cell line HCC1419
  GI50: 6760 nM
HCC1428, cell line HCC1428, censored GI50 values
  GI50: 4470 nM
HCC1428, cell line HCC1428
  GI50: 4470 nM
HCC1500, cell line HCC1500, censored GI50 values
  GI50: 33.9 nM
HCC1500, cell line HCC1500
  GI50: 33.9 nM
HCC1806, cell line HCC1806, censored GI50 values
  GI50: 28.8 nM
HCC1806, cell line HCC1806
  GI50: 28.8 nM
HCC1937, cell line HCC1937, censored GI50 values
  GI50: 282 nM
HCC1937, cell line HCC1937
  GI50: 282 nM
HCC1954, cell line HCC1954, censored GI50 values
  GI50: 30.9 nM
HCC1954, cell line HCC1954
  GI50: 30.9 nM
MCF7, cell line MCF7, censored GI50 values
  GI50: 38 nM
MCF7, cell line MCF7
  GI50: 38 nM
MDA-MB-134-VI, cell line MDAMB134VI, censored GI50 values
  GI50: 43.7 nM
MDA-MB-157, cell line MDAMB157, censored GI50 values
  GI50: 31.6 nM
MDA-MB-175-VII, cell line MDAMB175VII, censored GI50 values
  GI50: 1700 nM
MDA-MB-231, cell line MDAMB231, censored GI50 values
  GI50: 31.6 nM
MDA-MB-361, cell line MDAMB361, censored GI50 values
  GI50: 33.9 nM
MDA-MB-415, cell line MDAMB415, censored GI50 values
  GI50: 75.9 nM
MDA-MB-436, cell line MDAMB436, censored GI50 values
  GI50: 38.9 nM
MDA-MB-453, cell line MDAMB453, censored GI50 values
  GI50: 42.7 nM
MDA-MB-468, cell line MDAMB468, censored GI50 values
  GI50: 19.1 nM
SK-BR-3, cell line SKBR3, censored GI50 values
  GI50: 33.9 nM
SUM52PE, cell line SUM52PE, censored GI50 values
  GI50: 28.8 nM
SUM149PT, cell line SUM149PT, censored GI50 values
  GI50: 33.1 nM
SUM185PE, cell line SUM185PE, censored GI50 values
  GI50: 110 nM
SUM225CWN, cell line SUM225CWN, censored GI50 values
  GI50: 105 nM
SUM1315MO2, cell line SUM1315MO2, censored GI50 values
  GI50: 40.7 nM
SUM-159-PT, cell line SUM159PT, censored GI50 values
  GI50: 47.9 nM
T47D, cell line T47D, censored GI50 values
  GI50: 83.2 nM
UACC-893, cell line UACC893, censored GI50 values
  GI50: 10.5 nM
ZR-75-1, cell line ZR751, censored GI50 values
  GI50: 89.1 nM
ZR-75B, cell line ZR75B, censored GI50 values
  GI50: 132 nM
Cell line 600MPE, censored GI50 values
  GI50: 20.9 nM
Cell line 600MPE
  GI50: 20.9 nM
Cell line HCC2185, censored GI50 values
  GI50: 29.5 nM
Cell line HCC2185
  GI50: 29.5 nM
Cell line HCC3153, censored GI50 values
  GI50: 28.2 nM
Cell line HCC3153
  GI50: 28.2 nM
Cell line LY2, censored GI50 values
  GI50: 22.9 nM
Cell line LY2
  GI50: 22.9 nM
